From PubChem BioAssay (NCI)
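96-well plates; 48 h exposure; 5 concentrations. Endpoints by linear interpolation between flanking doses. Not reached: highest tested concentration assigned. GI50 marks 50% less growth. TGI marks complete inhibition of growth.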

Columns and labels:
Test in all cases: inhibition of tumour cell growth, NCI panel, 48 h
PC-3 prostate = system: PC-3 prostate
HT29 colon = system: HT29 colon
TK-10 renal = system: TK-10 renal
COLO 205 colon = system: COLO 205 colon
SK-MEL-2 melanoma = system: SK-MEL-2 melanoma
CCRF-CEM leukemia = system: CCRF-CEM leukemia
BT-549 breast = system: BT-549 breast
U251 CNS = system: U251 CNS
786-0 renal = system: 786-0 renal
MDA-MB-435 = system: MDA-MB-435
SW-620 colon = system: SW-620 colon
NCI-H460 lung = system: NCI-H460 lung
KM12 colon = system: KM12 colon
MDA-MB-231 breast = system: MDA-MB-231 breast
A549 NSCLC = system: A549 NSCLC
LOX IMVI melanoma = system: LOX IMVI melanoma
SNB-19 CNS = system: SNB-19 CNS
UO-31 renal = system: UO-31 renal
MALME-3M melanoma = system: MALME-3M melanoma
CAKI-1 renal = system: CAKI-1 renal
SK-MEL-28 melanoma = system: SK-MEL-28 melanoma
NCI-H226 lung = system: NCI-H226 lung
HCT-15 colon = system: HCT-15 colon
RPMI-8226 leukemia = system: RPMI-8226 leukemia
K-562 leukemia = system: K-562 leukemia
IGROV1 ovarian = system: IGROV1 ovarian
HOP-92 NSCLC = system: HOP-92 NSCLC
A498 renal = system: A498 renal
HCC-2998 colon = system: HCC-2998 colon
UACC-62 melanoma = system: UACC-62 melanoma
M14 melanoma = system: M14 melanoma
NCI/ADR-RES ovarian = system: NCI/ADR-RES ovarian
SF-539 CNS = system: SF-539 CNS
NCI-H23 lung = system: NCI-H23 lung
SF-268 CNS = system: SF-268 CNS
SK-OV-3 ovarian = system: SK-OV-3 ovarian
RXF 393 renal = system: RXF 393 renal
OVCAR-4 ovarian = system: OVCAR-4 ovarian
OVCAR-8 ovarian = system: OVCAR-8 ovarian
SF-295 CNS = system: SF-295 CNS
HOP-62 NSCLC = system: HOP-62 NSCLC
OVCAR-3 ovarian = system: OVCAR-3 ovarian
SK-MEL-5 melanoma = system: SK-MEL-5 melanoma
OVCAR-5 ovarian = system: OVCAR-5 ovarian
NCI-H522 lung = system: NCI-H522 lung
DU-145 prostate = system: DU-145 prostate
SN12C renal = system: SN12C renal
MOLT-4 leukemia = system: MOLT-4 leukemia
UACC-257 melanoma = system: UACC-257 melanoma
HL-60(TB) leukemia = system: HL-60(TB) leukemia
SR leukemia = system: SR leukemia
MCF7 breast = system: MCF7 breast
HCT-116 colon = system: HCT-116 colon
T-47D breast = system: T-47D breast
ACHN renal = system: ACHN renal
EKVX NSCLC = system: EKVX NSCLC
SNB-75 CNS = system: SNB-75 CNS
HS 578T breast = system: HS 578T breast

SMILES: COc1nc(N)nc2c1ncn2[C@@H]1O[C@H](CO)[C@@H](O)[C@@H]1O
- GI50 (PC-3 prostate): > 100 µM
- TGI (PC-3 prostate): > 100 µM
- GI50 (HT29 colon): > 100 µM
- TGI (HT29 colon): > 100 µM
- GI50 (TK-10 renal): > 100 µM
- TGI (TK-10 renal): > 100 µM
- GI50 (COLO 205 colon): > 100 µM
- TGI (COLO 205 colon): > 100 µM
- GI50 (SK-MEL-2 melanoma): > 100 µM
- TGI (SK-MEL-2 melanoma): > 100 µM
- GI50 (CCRF-CEM leukemia): 2.66 µM
- TGI (CCRF-CEM leukemia): > 100 µM
- GI50 (BT-549 breast): > 100 µM
- TGI (BT-549 breast): > 100 µM
- GI50 (U251 CNS): > 100 µM
- TGI (U251 CNS): > 100 µM
- GI50 (786-0 renal): > 100 µM
- TGI (786-0 renal): > 100 µM
- GI50 (MDA-MB-435): > 100 µM
- TGI (MDA-MB-435): > 100 µM
- GI50 (SW-620 colon): > 100 µM
- TGI (SW-620 colon): > 100 µM
- GI50 (NCI-H460 lung): > 100 µM
- TGI (NCI-H460 lung): > 100 µM
- GI50 (KM12 colon): > 100 µM
- TGI (KM12 colon): > 100 µM
- GI50 (MDA-MB-231 breast): > 100 µM
- TGI (MDA-MB-231 breast): > 100 µM
- GI50 (A549 NSCLC): > 100 µM
- TGI (A549 NSCLC): > 100 µM
- GI50 (LOX IMVI melanoma): > 100 µM
- TGI (LOX IMVI melanoma): > 100 µM
- GI50 (SNB-19 CNS): > 100 µM
- TGI (SNB-19 CNS): > 100 µM
- GI50 (UO-31 renal): > 100 µM
- TGI (UO-31 renal): > 100 µM
- GI50 (MALME-3M melanoma): > 100 µM
- TGI (MALME-3M melanoma): > 100 µM
- GI50 (CAKI-1 renal): > 100 µM
- TGI (CAKI-1 renal): > 100 µM
- GI50 (SK-MEL-28 melanoma): > 100 µM
- TGI (SK-MEL-28 melanoma): > 100 µM
- GI50 (NCI-H226 lung): > 100 µM
- TGI (NCI-H226 lung): > 100 µM
- GI50 (HCT-15 colon): > 100 µM
- TGI (HCT-15 colon): > 100 µM
- GI50 (RPMI-8226 leukemia): > 100 µM
- TGI (RPMI-8226 leukemia): > 100 µM
- GI50 (K-562 leukemia): > 100 µM
- TGI (K-562 leukemia): > 100 µM
- GI50 (IGROV1 ovarian): > 100 µM
- TGI (IGROV1 ovarian): > 100 µM
- GI50 (HOP-92 NSCLC): > 100 µM
- TGI (HOP-92 NSCLC): > 100 µM
- GI50 (A498 renal): > 100 µM
- TGI (A498 renal): > 100 µM
- GI50 (HCC-2998 colon): > 100 µM
- TGI (HCC-2998 colon): > 100 µM
- GI50 (UACC-62 melanoma): > 100 µM
- TGI (UACC-62 melanoma): > 100 µM
- GI50 (M14 melanoma): > 100 µM
- TGI (M14 melanoma): > 100 µM
- GI50 (NCI/ADR-RES ovarian): > 100 µM
- TGI (NCI/ADR-RES ovarian): > 100 µM
- GI50 (SF-539 CNS): > 100 µM
- TGI (SF-539 CNS): > 100 µM
- GI50 (NCI-H23 lung): > 100 µM
- TGI (NCI-H23 lung): > 100 µM
- GI50 (SF-268 CNS): > 100 µM
- TGI (SF-268 CNS): > 100 µM
- GI50 (SK-OV-3 ovarian): > 100 µM
- TGI (SK-OV-3 ovarian): > 100 µM
- GI50 (RXF 393 renal): > 100 µM
- TGI (RXF 393 renal): > 100 µM
- GI50 (OVCAR-4 ovarian): > 100 µM
- TGI (OVCAR-4 ovarian): > 100 µM
- GI50 (OVCAR-8 ovarian): > 100 µM
- TGI (OVCAR-8 ovarian): > 100 µM
- GI50 (SF-295 CNS): > 100 µM
- TGI (SF-295 CNS): > 100 µM
- GI50 (HOP-62 NSCLC): > 100 µM
- TGI (HOP-62 NSCLC): > 100 µM
- GI50 (OVCAR-3 ovarian): > 100 µM
- TGI (OVCAR-3 ovarian): > 100 µM
- GI50 (SK-MEL-5 melanoma): > 100 µM
- TGI (SK-MEL-5 melanoma): > 100 µM
- GI50 (OVCAR-5 ovarian): > 100 µM
- TGI (OVCAR-5 ovarian): > 100 µM
- GI50 (NCI-H522 lung): > 100 µM
- TGI (NCI-H522 lung): > 100 µM
- GI50 (DU-145 prostate): > 100 µM
- TGI (DU-145 prostate): > 100 µM
- GI50 (SN12C renal): > 100 µM
- TGI (SN12C renal): > 100 µM
- GI50 (MOLT-4 leukemia): 9.51 µM
- TGI (MOLT-4 leukemia): > 100 µM
- GI50 (UACC-257 melanoma): > 100 µM
- TGI (UACC-257 melanoma): > 100 µM
- GI50 (HL-60(TB) leukemia): > 100 µM
- TGI (HL-60(TB) leukemia): > 100 µM
- GI50 (SR leukemia): > 100 µM
- TGI (SR leukemia): > 100 µM
- GI50 (MCF7 breast): > 100 µM
- TGI (MCF7 breast): > 100 µM
- GI50 (HCT-116 colon): > 100 µM
- TGI (HCT-116 colon): > 100 µM
- GI50 (T-47D breast): > 100 µM
- TGI (T-47D breast): > 100 µM
- GI50 (ACHN renal): > 100 µM
- TGI (ACHN renal): > 100 µM
- GI50 (EKVX NSCLC): > 100 µM
- TGI (EKVX NSCLC): > 100 µM
- GI50 (SNB-75 CNS): > 100 µM
- TGI (SNB-75 CNS): > 100 µM
- GI50 (HS 578T breast): > 100 µM
- TGI (HS 578T breast): > 100 µM
